How the values were obtained:
Test in all cases: relative viability (nuclei count vs DMSO), 5 days (fraction); higher = more cells survive
[1] = compound: COc1cc2c(Oc3ccc4[nH]c(C)cc4c3F)ncnc2cc1OCCCN1CCCC1 [Cediranib] + C[C@@H](Oc1cc(-c2cnn(C3CCNCC3)c2)cnc1N)c1c(Cl)ccc(F)c1Cl [Crizotinib] (partner 1 µM)
In short: (§1)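 The day after seeding in 1536-well plates, lung cancer cell lines were treated by pin tool with a single drug, or with a fixed anchor-drug dose together with five library-drug doses (not always all listed) in √10 steps. After 5 days, a combined fix-and-stain solution (final 0.05% Triton X-100, 1% formaldehyde, 1 ug/ml Hoechst) was added. Nuclei counted on 4× images gave relative viability as treated counts over vehicle counts, reported as the median of duplicate plates.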

[2] = compound: Nc1ncn([C@H]2C[C@H](O)[C@@H](CO)O2)c(=O)n1 [Decitabine] + NC(=O)Nc1cc(-c2cccc(F)c2)sc1C(=O)N[C@H]1CCCNC1 [AZD7762] (partner 0.2 µM)
In short: as §1

[3] = compound: Nc1ncn([C@H]2C[C@H](O)[C@@H](CO)O2)c(=O)n1 [Decitabine] + CS(=O)(=O)N1CCN(Cc2cc3nc(-c4cccc5[nH]ncc45)nc(N4CCOCC4)c3s2)CC1 [Pictilisib] (partner 1 µM)
In short: as §1

[4] = compound: O=C(C[C@H]1NCCC[C@@H]1O)Cn1cnc2cc(Br)c(Cl)cc2c1=O (racemic) [Halofuginone] + Cc1cc(Nc2cc(N3CCN(C)CC3)nc(Sc3ccc(NC(=O)C4CC4)cc3)n2)n[nH]1 [Tozasertib] (partner 0.1 µM)
In short: as §1

| Cell Line | relative viability ([1]; first compound 0.04 µM) | relative viability ([1]; first compound 0.1265 µM) | relative viability ([1]; first compound 0.4 µM) | relative viability ([1]; first compound 1.265 µM) | relative viability ([1]; first compound 4 µM) | relative viability ([2]; first compound 0.04 µM) | relative viability ([2]; first compound 0.1265 µM) | relative viability ([2]; first compound 0.4 µM) | relative viability ([2]; first compound 4 µM) | relative viability ([3]; first compound 0.04 µM) | relative viability ([3]; first compound 0.1265 µM) | relative viability ([3]; first compound 0.4 µM) | relative viability ([3]; first compound 1.265 µM) | relative viability ([3]; first compound 4 µM) | relative viability ([4]; first compound 0.001 µM) | relative viability ([4]; first compound 0.003162 µM) | relative viability ([4]; first compound 0.01 µM) | relative viability ([4]; first compound 0.03162 µM) | relative viability ([4]; first compound 0.1 µM) | relative viability ([2]; first compound 1.265 µM) |
| --- | --- | --- | --- | --- | --- | --- | --- | --- | --- | --- | --- | --- | --- | --- | --- | --- | --- | --- | --- | --- |
| 201T | 1.05 | 1.18 | 0.989 | 1.01 | 1.01 | 0.463 | 0.514 | 0.38 | 0.353 | 0.655 | 0.817 | 0.93 | 0.695 | 0.531 | 1 | 0.813 | 0.995 | 0.779 | 0.548 | – |
| A549 | 0.805 | 0.768 | 0.679 | 0.773 | 0.605 | – | – | – | – | 0.444 | 0.49 | 0.37 | 0.256 | 0.166 | – | – | – | – | – | – |
| A-427 | 0.946 | – | 0.829 | 0.866 | 0.884 | 0.464 | 0.512 | 0.425 | 0.285 | 0.42 | 0.663 | 0.244 | 0.359 | 0.219 | 0.186 | 0.225 | 0.224 | 0.198 | 0.192 | 0.278 |
| ABC-1 | 1.39 | 1.17 | 1.34 | – | 0.999 | 0.668 | 0.814 | 0.712 | 0.84 | 0.812 | 0.728 | 0.812 | 0.443 | 0.505 | 0.141 | 0.142 | 0.162 | 0.189 | 0.158 | 0.701 |
| BEN | 1.19 | 0.662 | 0.971 | 0.824 | 0.816 | 0.691 | 0.791 | 0.55 | 0.664 | 0.545 | 0.543 | 0.396 | 0.349 | 0.324 | 0.535 | 0.528 | 0.456 | 0.511 | 0.482 | 0.586 |
| CAL-12T | 0.855 | 0.639 | 0.661 | 0.638 | 0.62 | 0.638 | 0.578 | 0.48 | 0.453 | 0.299 | 0.499 | 0.332 | 0.339 | 0.301 | 0.354 | 0.279 | 0.352 | 0.305 | 0.262 | 0.443 |
| COR-L23 | 0.696 | 0.749 | 0.654 | 0.703 | 0.68 | – | – | – | – | 0.527 | 0.619 | 0.239 | 0.178 | 0.172 | 0.249 | 0.218 | 0.198 | 0.153 | 0.106 | – |
| COR-L 105 | – | 0.842 | 0.832 | 0.716 | 0.695 | – | – | – | – | 0.327 | 0.442 | 0.405 | 0.341 | 0.292 | 0.337 | 0.288 | 0.385 | 0.329 | 0.346 | – |
| Calu-6 | 0.844 | 0.849 | 0.81 | 0.786 | 0.602 | – | – | – | – | 0.76 | 0.685 | 0.468 | 0.334 | 0.243 | – | – | – | – | – | – |
| ChaGo-K-1 | 1.08 | – | 1.08 | 1.14 | 0.874 | 0.725 | 0.679 | 0.469 | 0.408 | 0.552 | 0.705 | 0.446 | 0.509 | 0.492 | 0.256 | 0.205 | 0.261 | 0.222 | 0.208 | 0.442 |
| EBC-1 | 0.17 | 0.213 | 0.21 | 0.201 | 0.172 | – | – | – | – | 0.277 | 0.295 | 0.252 | 0.214 | 0.169 | – | – | – | – | – | – |
| EKVX | 0.933 | 0.92 | 0.936 | 0.895 | 0.975 | 0.505 | 0.611 | 0.549 | 0.33 | 0.37 | 0.387 | 0.391 | 0.252 | 0.241 | 0.432 | 0.377 | 0.352 | 0.354 | 0.349 | 0.394 |
| EMC-BAC-2 | 0.782 | 0.703 | 0.754 | 0.785 | 0.853 | – | 1.15 | 0.908 | 0.846 | 0.529 | 0.557 | 0.468 | 0.411 | 0.37 | 0.329 | 0.248 | 0.276 | 0.242 | 0.162 | 0.911 |
| EPLC-272H | 0.735 | – | 0.945 | 1.04 | 0.906 | 0.255 | 0.195 | – | 0.221 | 0.277 | 0.303 | – | 0.271 | 0.321 | 0.241 | 0.333 | 0.318 | 0.279 | 0.247 | 0.158 |
| H3255 | 0.945 | 0.699 | 0.825 | 0.925 | 0.861 | 0.662 | 0.876 | 0.617 | 0.601 | 0.189 | 0.462 | 0.342 | 0.331 | 0.358 | 0.709 | 0.524 | 0.723 | 0.67 | 0.618 | 0.682 |
| HARA | 1.07 | 1.15 | 0.991 | 1.02 | 1.03 | 0.353 | 0.464 | 0.165 | 0.315 | 0.367 | 0.564 | 0.285 | 0.236 | 0.15 | 0.116 | 0.118 | 0.105 | 0.105 | 0.0853 | 0.203 |
| HCC-15 | 0.93 | – | 0.787 | 0.816 | 0.828 | 1.12 | 0.777 | 0.752 | 0.747 | 0.742 | 0.767 | 0.288 | 0.484 | 0.411 | 0.47 | 0.461 | 0.394 | 0.43 | 0.239 | 0.632 |
| HCC-44 | 0.803 | – | 0.774 | 0.825 | 0.935 | 1.08 | 0.974 | 0.932 | 1.06 | 0.537 | 0.71 | 0.353 | 0.412 | 0.372 | 1.16 | 0.994 | 1 | 0.824 | 0.17 | 1.06 |
